Data: US9669028B2, “Substituted 5-(pyrazin-2-yl)-1H-pyrazolo [3, 4-B] pyridine and pyrazolo [3, 4-B] pyridine derivatives as protein kinase inhibitors” (Arrien Pharmaceuticals LLC, priority 2011, dated 2017)
pIC50: −log10 of the molar value. ≈ marks a conversion by molar mass, not a printed value.

How the values were obtained:
DYRK1A = DYRK1A (Homo sapiens (Human), UniProt Q13627); experiment: In vitro DYRK1A inhibition assay; type: biochemical
Description: (§1) Briefly, specific kinase/substrate pairs along with required cofactors were prepared in reaction buffer; 20 mM Hepes (pH 7.5), 10 mM MgCl2, 1 mM EGTA, 0.02% Brij35, 0.02 mg/ml BSA, 0.1 mM Na3VO4, 2 mM DTT, 1% DMSO. Compounds were delivered into the reaction, followed ˜20 min later by addition of a mixture of ATP (Sigma) and 33P ATP (PerkinElmer) to a final concentration of 10 μM. […] IC50 values and curve fits were obtained using Prism (GraphPad Software). Kinome tree representations were prepared using Kinome Mapper (http://www.reactionbiology.com/apps/kinome/mapper/Launch Kinome.htm).
The 2×DYRK1A/Ser/Thr 18 mixture was prepared in 50 mM HEPES pH 7.5, 0.01% BRIJ-35, 10 mM MgCl2, 1 mM EGTA.

LRRK2 = LRRK2 (Homo sapiens (Human), UniProt Q5S007); experiment: LRRK2 Kinase Assay; type: biochemical; conditions: 10 μM ATP
Description: as §1
For the wild type LRRK the 2×LRRK2/ERM (LRRKtide) mixture was prepared in 50 mM Tris pH 8.5, 0.01% BRIJ-35, 10 mM MgCl2, 1 mM EGTA, 0.02% NaN3. […] After 1 hour Kinase Reaction incubation, 5 μL of Detection Mix was added.

[1] = test system: 299 protein kinases+17 additional preview kinases; experiment: Protein Kinase Selectivity Profiler; type: biochemical, human; conditions: 10 μM ATP; for % enzyme inhibition relative to DMSO controls: LRRK2, LRRK2 G2019S, CHK1, DYRK1A, FLT3, MLK1, TNIK, TRKA, single dose 0.5 μM, 1 μM
Description: In vitro profiling of the 317 member kinase panel was performed at Reaction Biology Corporation using the “HotSpot” assay platform. Briefly, specific kinase/substrate pairs along with required cofactors were prepared in reaction buffer; 20 mM Hepes (pH 7.5), 10 mM MgCl2, 1 mM EGTA, 0.02% Brij35, 0.02 mg/ml BSA, 0.1 mM Na3VO4, 2 mM DTT, 1% DMSO. Compounds were delivered into the reaction, followed ˜20 min later by addition of a mixture of ATP (Sigma) and 33P ATP (PerkinElmer) to a final concentration of 10 μM. Reactions were carried out at 25° C. for 120 min, followed by spotting of the reactions onto P81 ion exchange filter paper (Whatman). Unbound phosphate was removed by extensive washing of filters in 0.75% phosphoric acid. […] IC50 values and curve fits were obtained using Prism (GraphPad Software). Kinome tree representations were prepared using Kinome Mapper (http://www.reactionbiology.com/apps/kinome/mapper/Launch Kinome.htm). Specifically for the LRRK2 enzyme the substrate LRRKtide (gene bank and protein access numbers NP_940980.2 Q5S007) and clone aa 970-2527 expressed in baculovirus in insect cells with N-terminal GST tag was employed in the study protocol. In the case of DYRK1A (SEQ ID NO 16) the substrate casein (gene bank and protein access numbers NP_001387 Q13627) full length clone expressed in insect with n-terminal tag was used.
A control compound was tested in 10-dose IC50 mode with 3-fold serial dilution starting at 20 μM. Reactions were carried out at 10 μM ATP. Data pages include raw data, % Enzyme activity (relative to DMSO controls), and curve fits.

in vivo = conditions: male, Sprague Dawley, rat
Source text: To investigate the pharmacokinetic profiles of test compound following intravenous bolus administration and oral gavage in male Sprague Dawley rats.

[2] = test system: MPTP-injected C57 black mice; experiment: MPTP mouse model of Parkinson's disease, oral pre-treatment; type: in vivo; conditions: for protection against MPTP-induced TH cell loss and dopaminergic degeneration in substantia nigra and striatum: 10 mg/kg and 30 mg/kg oral; for locomotor activities in MPTP-injected mice / striatal dopamine levels in MPTP treated mice: orally administered, pre-treatment
[3] = test system: MPTP-injected C57 black mice; experiment: MPTP mouse model, intravenous pre-treatment; type: in vivo; conditions: 5 mg/kg i.v.
Description: 24 C57 black mice (C57/bl6, 6-8 week old, and 25-30 g) were purchased from Charles River Laboratories, Ohio. […] Prior to treatment animals were pre-trained on rotarod for at least 3 minutes every day for three successive days. Test compound (5 mg/kg) was administered intravenously to group C animals, 24 h prior to MPTP-injection and continued daily for additional 11 days. MPTP was dissolved in PBS and injected intraperitoneally (i.p.) at doses of 25 mg/kg, once daily for 5 days to group B and C animals. Group A animals were injected with saline (i.p.) to be used as controls. Urine and Faeces were collected on Day 8, behavioural studies were performed on Day 9 (4-days post-MPTP). On day 12 (7 days post-MPTP), 4 animals/group were sacrificed, different brains regions including striatum and substantia nigra were dissected. Left striatum were used for neurochemical analysis. Other 4 animals/group were perfused and used for TH immunohistological studies.

LRRK2 G2019S = LRRK2 G2019S (Homo sapiens (Human), UniProt Q5S007, G2019S); experiment: LRRK2 G2019S Kinase Assay; type: biochemical; conditions: 10 μM ATP
Description: Procedure: Enzyme was incubated with substrate peptide in reaction buffer in the presence and absence of test compounds or Staurosporine. All additions were done on ice, followed by the addition of ATP mix. Wells were uniformly mixed using an Eppendorff plate shaker and incubated at 30° C. for 20 min, and stopped by the addition of 5 μl of 3% phosphoric acid. Volume was increased to 100 μl by adding 0.8% phosphoric acid which was then transferred to PC filter mats (Millipore), pre-equilibrated with 70% ethanol and water. Plates were washed thrice with 100 μl 0.8% phosphoric acid and dried for an hour at 60° C. 100 μl scintillation fluid was added into each well and reading taken in Perkin Elmer TOPCOUNT beta counter. […] A validation EC50 curve was generated by plotting CPM for each Staurosporine concentration on y-axis against the Log concentration of Staurosporine (nM) on the x-axis followed by a best fit curve through the points.
After 1 hour Kinase Reaction incubation, 5 μL of Detection Mix was added.

[4] = test system: MPTP-injected C57 black mice; experiment: MPTP mouse model, post-treatment study; type: in vivo; conditions: post-administration, oral and i.v routes
Description: 32 C57 black mice (C57/bl6, 6-8 week old, 25-30 g) were purchased from Charles River Laboratories, Ohio. […] All animals were housed in Laboratory of Animal Resources vivarium at Iowa State University under standard conditions: constant temperature (22±1° C.), humidity (relative, 30%), and a 12-h light/dark cycle. Mice were allowed free access to food and water. Use of the animals and protocol procedures were approved and supervised by the Committee on Animal Care at Iowa State University (Ames, Iowa). Test compounds were dissolved in PBS for this study. Prior to treatment animals were pre-trained on rotarod for at least 3 minutes every day for three successive days. Group A animals were injected with saline (i.p.) to be used as controls. MPTP was dissolved in PBS and injected intraperitoneally (i.p.) at doses of 25 mg/kg, once daily for 5 days to group B, C and D animals. On day 4, prior to 4th MPTP injection, group C animals received test compounds (30 mg/kg, oral) daily for eight days. Similarly, on day 4, prior to 4th MPTP injection, group D animals received test compounds (5 mg/kg, i.v) daily for eight days. On day 9 (Post-test compounds administration) or day 12 (7 days post-MPTP), 4 animals/group were sacrificed, different brain regions including striatum and substantia nigra were dissected. Left striatum were used for neurochemical analysis. Other 4 animals/group were perfused and used for TH immunohistological studies.

[5] = test system: Rat hepatoma (H4IIE) cell line; experiment: In vitro toxicology, general cytotoxicity; type: cell-based; conditions: 24 hrs
Description: Cells were seeded into 96-well plates and cultured in medium containing 20% bovine serum. […] General cytotoxicity was evaluated by monitoring membrane integrity (MBR, cell supernatant), cell mass (PI) and mitochondrial function (cellular ATP levels). Rotenone was included as a positive control because it produces measurable effects in all three assays. DMSO at 0.5% in medium was included as a negative control. Three wells per exposure concentration were used in each assay. Results are summarized in Table 8 and are expressed as percent of control, with control values set at 100%. […] Test compounds 13 and 13 HCl were rank-ordered from most to least toxic based on individual membrane integrity and ATP responses as well as resultant TC50 values.
Test compounds 13 and 13 HCl were rank-ordered from highest to lowest probability of producing toxicity based first on membrane toxicity, then on ATP, and finally on cell mass (PI). It is important to note that within a given grouping compounds may be classified as to their primary effect being either cytotoxic, cytostatic, or reducing mitochondrial function. In general, compound responses above 80% of vehicle control are considered to be low-to-no effect, moderates generally rank 80% to 50% of vehicle control, and those compounds that cross the 50% mark are considered to have higher probability of toxicity.

LRRK2 G2019S, sequence (Q5S007 970-2527 G2019S): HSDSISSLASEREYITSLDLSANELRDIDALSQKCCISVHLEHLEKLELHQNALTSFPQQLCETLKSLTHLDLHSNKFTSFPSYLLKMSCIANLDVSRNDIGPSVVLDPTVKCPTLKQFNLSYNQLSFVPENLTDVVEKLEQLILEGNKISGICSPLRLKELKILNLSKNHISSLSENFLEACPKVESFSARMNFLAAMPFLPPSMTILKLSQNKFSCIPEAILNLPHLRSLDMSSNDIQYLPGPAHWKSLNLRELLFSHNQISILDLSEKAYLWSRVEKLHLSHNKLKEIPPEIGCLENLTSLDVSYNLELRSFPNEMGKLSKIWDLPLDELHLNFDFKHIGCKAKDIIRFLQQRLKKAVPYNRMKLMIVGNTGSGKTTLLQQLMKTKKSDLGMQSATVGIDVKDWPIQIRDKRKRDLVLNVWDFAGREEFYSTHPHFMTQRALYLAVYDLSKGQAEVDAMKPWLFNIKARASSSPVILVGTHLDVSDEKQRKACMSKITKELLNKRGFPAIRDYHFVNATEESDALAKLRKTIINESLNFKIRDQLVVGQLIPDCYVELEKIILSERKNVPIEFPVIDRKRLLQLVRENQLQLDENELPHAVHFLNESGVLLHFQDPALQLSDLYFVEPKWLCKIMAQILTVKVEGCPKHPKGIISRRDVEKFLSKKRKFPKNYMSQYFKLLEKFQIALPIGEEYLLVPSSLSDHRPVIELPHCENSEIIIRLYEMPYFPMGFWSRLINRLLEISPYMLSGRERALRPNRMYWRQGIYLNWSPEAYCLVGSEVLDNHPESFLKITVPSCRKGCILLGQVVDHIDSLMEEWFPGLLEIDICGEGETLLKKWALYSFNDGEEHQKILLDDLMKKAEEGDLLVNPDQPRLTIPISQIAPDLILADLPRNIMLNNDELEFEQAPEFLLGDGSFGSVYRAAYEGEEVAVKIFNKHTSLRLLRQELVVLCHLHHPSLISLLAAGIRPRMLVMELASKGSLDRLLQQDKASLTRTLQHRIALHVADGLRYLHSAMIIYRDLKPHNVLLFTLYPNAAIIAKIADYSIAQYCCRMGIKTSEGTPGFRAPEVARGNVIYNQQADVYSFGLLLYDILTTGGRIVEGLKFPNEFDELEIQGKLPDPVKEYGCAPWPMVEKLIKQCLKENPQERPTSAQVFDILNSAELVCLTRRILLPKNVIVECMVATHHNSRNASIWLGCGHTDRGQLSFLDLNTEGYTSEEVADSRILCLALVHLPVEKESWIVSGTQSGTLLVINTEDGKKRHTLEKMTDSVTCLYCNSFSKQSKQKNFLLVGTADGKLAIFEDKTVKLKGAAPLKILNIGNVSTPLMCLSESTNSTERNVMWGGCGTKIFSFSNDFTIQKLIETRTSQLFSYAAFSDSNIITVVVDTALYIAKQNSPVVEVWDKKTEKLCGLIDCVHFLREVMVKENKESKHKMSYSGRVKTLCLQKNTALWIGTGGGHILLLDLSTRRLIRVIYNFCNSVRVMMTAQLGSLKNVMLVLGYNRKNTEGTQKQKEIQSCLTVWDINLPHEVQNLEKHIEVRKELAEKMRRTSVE
LRRK2, sequence (Q5S007 970-2527): as the sequence (Q5S007 970-2527 G2019S) above, with S1050G counted along it

Row | Compound | pIC50 (DYRK1A) | pIC50 (LRRK2) | AUC(0-t) (in vivo; iv, 5 mg/kg) [ng·h/mL] | Vd (in vivo; iv, 5 mg/kg) [L/kg] | clearance (in vivo; iv, 5 mg/kg) [mL/min/kg] | half-life (in vivo; iv, 5 mg/kg) [h] | AUC(0-t) (in vivo; po, 30 mg/kg) [ng·h/mL] | Cmax (in vivo; po, 30 mg/kg) [ng/mL] | F (in vivo; po, 30 mg/kg) [%] | Tmax (in vivo; po, 30 mg/kg) [h] | protection against MPTP-induced TH cell loss and dopaminergic degeneration in substantia nigra and striatum [2] | locomotor activities in MPTP-injected mice [2] | striatal dopamine levels in MPTP treated mice [2] | protection against MPTP-induced TH neuronal loss in the substantia nigra and in the striatum [3] | pIC50 (LRRK2 G2019S) | % enzyme inhibition relative to DMSO controls [1] | other results
1 | Cc1n[nH]c2ncc(-c3cncc(N(C)CC4CCOCC4)n3)cc12 [Compound 71, N-methyl-6-(3-methyl-1H-pyrazolo[3,4-b]pyridin-5-yl)-N-((tetrahydro-2H-pyran-4-yl)methyl)pyrazin-2-amine] | > 6.30 | > 6.30 | 1020 | 15.2 | 123 | 2.26 | 1040 | 133 | 24 | 6.7 | dose-dependent protection | Improve Locomotor Activities | Restore Striatal Dopamine Levels | Protect Against MPTP-Induced TH Neuronal Loss | > 6.30 | – | activity against kinases in broader scope, relative to DMSO control ([1]; ABL1 T315I, ALK2, ARK5, Aurora A/B/C, BRAF, C-KIT, CLK1-4, CSF1R, DYRK1A-4, FLT3, GSK3β, JAK1-3, KDR, LCK ... TRKA-C, single dose): 5-15%
2 | Cc1n[nH]c2ncc(-c3cncc(N4CCOCC4)n3)cc12 [Compound 105, 4-(6-(3-methyl-1H-pyrazolo[3,4-b]pyridin-5-yl)pyrazin-2-yl)morpholine] | > 6.30 | > 6.30 | 1020 | 15.2 | 123 | 2.26 | 1040 | 133 | 24 | 6.7 | dose-dependent protection | Improve Locomotor Activities | Restore Striatal Dopamine Levels | Protect Against MPTP-Induced TH Neuronal Loss | > 6.30 | 5-15% | protection against MPTP-induced histological deficits [4]: significantly protected; protection against MPTP-induced motor-deficits [4]: significantly protected; protection against MPTP-induced neurochemical deficits [4]: not against neurochemical deficits
3 | c1ccc2c(c1)CCN2c1cncc(-c2cnc3[nH]ccc3c2)n1 [Compound 134, 5-(6-(indolin-1-yl)pyrazin-2-yl)-1H-pyrrolo[2,3-b]pyridine] | > 6.30 | > 6.30 | 1020 | 15.2 | 123 | 2.26 | 1040 | 133 | 24 | 6.7 | dose-dependent protection | Improve Locomotor Activities | Restore Striatal Dopamine Levels | Protect Against MPTP-Induced TH Neuronal Loss | > 6.30 | 5-15% | –
4 | C=C(C)[C@H]1Cc2c(ccc3c2O[C@@H]2COc4cc(OC)c(OC)cc4[C@@H]2C3=O)O1 [Rotenone, reference compound] | – | – | – | – | – | – | – | – | – | – | – | – | – | – | – | – | ATP % Control ([5]; 0.001 μM): 98%; Cell Mass % Control ([5]; 0.001 μM): 105%; Mem Tox % Control ([5]; 0.001 μM): 100%; ATP % Control ([5]; 0.1 μM): 34%; Cell Mass % Control ([5]; 0.1 μM): 54%; Mem Tox % Control ([5]; 0.1 μM): 98%; ATP % Control ([5]; 1 μM): 4%; Cell Mass % Control ([5]; 1 μM): 25%; Mem Tox % Control ([5]; 1 μM): 46%; ATP TC50 [5]: 80 nM; Cell Mass TC50 [5]: 230 nM; Mem Tox TC50 [5]: 930 nM; solubility (physchem): 1 µM (≈ 0.394 µg/mL)
